Test results from patent US20250250230A1, “HETEROCYCLIC COMPOUND” (TAKEDA PHARMACEUTICAL COMPANY LIMITED, priority 2022, published 2025).

Biological target: T1, human orexin type 2 receptor (Homo sapiens, UniProt O43614)
T1 construct: expressed in transfected cells
T1 sequence (O43614 1-444): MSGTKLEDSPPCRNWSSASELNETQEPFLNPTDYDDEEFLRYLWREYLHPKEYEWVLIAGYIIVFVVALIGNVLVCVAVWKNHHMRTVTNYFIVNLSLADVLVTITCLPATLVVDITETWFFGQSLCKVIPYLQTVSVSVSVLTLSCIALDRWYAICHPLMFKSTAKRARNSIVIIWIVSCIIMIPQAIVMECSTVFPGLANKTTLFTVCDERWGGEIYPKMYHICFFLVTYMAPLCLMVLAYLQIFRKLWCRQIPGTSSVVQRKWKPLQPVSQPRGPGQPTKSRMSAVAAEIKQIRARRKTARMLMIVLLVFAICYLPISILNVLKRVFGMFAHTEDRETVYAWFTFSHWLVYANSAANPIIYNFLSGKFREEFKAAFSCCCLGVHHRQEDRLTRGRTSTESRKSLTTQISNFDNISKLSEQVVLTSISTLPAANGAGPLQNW
Test: Measurement of orexin type 2 receptor agonist activity (calcium fluorescence, Fluo-4 AM, FDSS)
Format: cell-based
Conditions: test compound 3 μM; CHO cells expressing human OX2 receptor; DMSO = 0%, orexin A (human) = 100%
Summary of the method: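 CHO-K1 cells stably expressing human OX2R were loaded with Fluo-4 AM (30 min 37 °C, 30 min RT) in HEPES-buffered HBSS with 0.1% BSA and probenecid. Calcium fluorescence was followed on FDSS for 2 min after compound addition; activity normalised to DMSO (0%) and 10 nM orexin A (100%).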

Which “OX2R agonist activity (3 μM, %)” value does the source give for `CCS(=O)(=O)NC[C@@H]1[C@H](F)CN1C(=O)[C@@H]1C[C@@]1(F)c1ccc(C)cc1-c1c(F)cccc1F` [Example 410, N-({(2R,3R)-1-[(1S,2S)-2-(2′,6′-difluoro-5-methyl[1,1′-biphenyl]-2-yl)-2-fluorocyclopropane-1-carbonyl]-3-fluoroazetidin-2-yl}methyl)ethanesulfonamide] here?
Its value is 103%.

How did the “OX2R agonist activity (3 μM, %)” value turn out when `CS(=O)(=O)NC1CN(C(=O)[C@@H]2C[C@@]2(F)c2ccccc2-c2c(F)cccc2F)CC1(F)F` (stereo partly drawn) [Example 331, N-{(3R)-1-[(1S,2S)-2-(2′,6′-difluoro[1,1′-biphenyl]-2-yl)-2-fluorocyclopropane-1-carbonyl]-4,4-difluoropyrrolidin-3-yl}methanesulfonamide, or N-{(3S)-1-[(1S,2S)-2-(2′,6′-difluoro[1,1′-biphenyl]-2-yl)-2-fluorocyclopropane-1-carbonyl]-4,4-difluoropyrrolidin-3-yl}methanesulfonamide] was run?
Its value is 96%.

Which “OX2R agonist activity (3 μM, %)” value does the source give for `Cc1cccc(F)c1-c1ccccc1C1CC1C(=O)N1CCC(NS(C)(=O)=O)C1` (racemic) [Example 3, a mixture of rac-N-{(3R)-1-[(1R,2R)-2-(2′-fluoro-6′-methyl[1,1′-biphenyl]-2-yl)cyclopropane-1-carbonyl]pyrrolidin-3-yl}methanesulfonamide and rac-N-{(3S)-1-[(1R,2R)-2-(2′-fluoro-6′-methyl[1,1′-biphenyl]-2-yl)cyclopropane-1-carbonyl]pyrrolidin-3-yl}methanesulfonamide] here?
The value was 81%.

`CS(=O)(=O)N[C@@H]1CCCCN(C(=O)C2CC2c2ccccc2-c2c(F)cccc2F)C1` (mixture of isomers) [Example 183, a mixture of N-{(3R)-1-[(1R,2R)-2-(2′,6′-difluoro[1,1′-biphenyl]-2-yl)cyclopropane-1-carbonyl]azepan-3-yl}methanesulfonamide and N-{(3R)-1-[(1S,2S)-2-(2′,6′-difluoro[1,1′-biphenyl]-2-yl)cyclopropane-1-carbonyl]azepan-3-yl}methanesulfonamide] was tested. Which “OX2R agonist activity (3 μM, %)” value did it give?
The value was 78%.

For `CS(=O)(=O)NC1CN(C(=O)C2CC2c2ccccc2-c2c(F)cccc2F)CC1F` (racemic) [Example 137, a mixture of rac-N-{(3S,4R)-1-[(1R,2R)-2-(2′,6′-difluoro[1,1′-biphenyl]-2-yl)cyclopropane-1-carbonyl]-4-fluoropyrrolidin-3-yl}methanesulfonamide and rac-N-{(3R,4S)-1-[(1R,2R)-2-(2′,6′-difluoro[1,1′-biphenyl]-2-yl)cyclopropane-1-carbonyl]-4-fluoropyrrolidin-3-yl}methanesulfonamide], which “OX2R agonist activity (3 μM, %)” value is on record?
The value was 59%.

For `CN(C)S(=O)(=O)NC1CCN(C(=O)C2CC2c2ccccc2-c2c(F)cccc2F)C1` (racemic) [Example 113, a mixture of rac-N′-{(3R)-1-[(1R,2R)-2-(2′,6′-difluoro[1,1′-biphenyl]-2-yl)cyclopropane-1-carbonyl]pyrrolidin-3-yl}-N,N-dimethylsulfuric diamide and rac-N′-{(3S)-1-[(1R,2R)-2-(2′,6-difluoro[1,1′-biphenyl]-2-yl)cyclopropane-1-carbonyl]pyrrolidin-3-yl}-N,N-dimethylsulfuric diamide], which “OX2R agonist activity (3 μM, %)” value is on record?
Its value is 100%.

`Cc1ccc(C2(F)CC2C(=O)N2C[C@@H](C)[C@H]2CNS(C)(=O)=O)c(-c2c(F)cccc2F)c1` (stereo partly drawn) [Example 396, N-({(2S,3R)-1-[(1R,2R)-2-(2′,6′-difluoro-5-methyl[1,1′-biphenyl]-2-yl)-2-fluorocyclopropane-1-carbonyl]-3-methylazetidin-2-yl}methyl)methanesulfonamide, or N-({(2S,3R)-1-[(1S,2S)-2-(2′,6′-difluoro-5-methyl[1,1′-biphenyl]-2-yl)-2-fluorocyclopropane-1-carbonyl]-3-methylazetidin-2-yl}methyl)methanesulfonamide] was tested. Which “OX2R agonist activity (3 μM, %)” value did it give?
The value was 104%.

For `CS(=O)(=O)NC1CCCN(C(=O)C2CC2c2cc(F)ccc2-c2c(F)cccc2F)CC1` (racemic) [Example 96, a mixture of rac-N-{(4R)-1-[(1R,2R)-2-(2′,4,6′-trifluoro[1,1′-biphenyl]-2-yl)cyclopropane-1-carbonyl]azepan-4-yl}methanesulfonamide and rac-N-{(4S)-1-[(1R,2R)-2-(2′,4,6′-trifluoro[1,1′-biphenyl]-2-yl)cyclopropane-1-carbonyl]azepan-4-yl}methanesulfonamide], which “OX2R agonist activity (3 μM, %)” value is on record?
The value was 62%.

Which “OX2R agonist activity (3 μM, %)” value does the source give for `CS(=O)(=O)N[C@H]1C[C@@H](O)CN(C(=O)[C@@H]2C[C@@]2(F)c2ccccc2-c2c(F)cccc2F)C1` [Example 341, N-{(3S,5R)-1-[(1S,2S)-2-(2′,6′-difluoro[1,1′-biphenyl]-2-yl)-2-fluorocyclopropane-1-carbonyl]-5-hydroxypiperidin-3-yl}methanesulfonamide] here?
The value was 101%.

For `CS(=O)(=O)NC1CN(C(=O)C2CC2c2c(F)cccc2-c2c(F)cccc2F)CC1(F)F` (stereo not drawn) [Example 226, N-{4,4-difluoro-1-[2-(2′,3,6′-trifluoro[1,1′-biphenyl]-2-yl)cyclopropane-1-carbonyl]pyrrolidin-3-yl}methanesulfonamide optical isomer], which “OX2R agonist activity (3 μM, %)” value is on record?
Its value is 104%.

Which “OX2R agonist activity (3 μM, %)” value does the source give for `CS(=O)(=O)NC1CCCN(C(=O)C2CC2c2ccccc2-c2cccc(F)c2F)C1` (racemic) [Example 67, a mixture of rac-N-{(3R)-1-[(1R,2R)-2-(2′,3′-difluoro[1,1′-biphenyl]-2-yl)cyclopropane-1-carbonyl]piperidin-3-yl}methanesulfonamide and rac-N-{(3S)-1-[(1R,2R)-2-(2′,3′-difluoro[1,1′-biphenyl]-2-yl)cyclopropane-1-carbonyl]piperidin-3-yl}methanesulfonamide] here?
Its value is 89%.

`CN(C)S(=O)(=O)NC[C@@H]1CCN1C(=O)C1CC1c1c(F)cccc1-c1c(F)cccc1F` (stereo partly drawn) [Example 314, N,N-dimethyl-N′-({(2S)-1-[(1R,2R)-2-(2′,3,6′-trifluoro[1,1′-biphenyl]-2-yl)cyclopropane-1-carbonyl]azetidin-2-yl}methyl)sulfuric diamide, or N,N-dimethyl-N′-({(2S)-1-[(1S,2S)-2-(2′,3,6′-trifluoro[1,1′-biphenyl]-2-yl)cyclopropane-1-carbonyl]azetidin-2-yl}methyl)sulfuric diamide] was tested. Which “OX2R agonist activity (3 μM, %)” value did it give?
The value was 99%.

With `CS(=O)(=O)NC1CCCN(C(=O)C2CC2c2ccccc2-c2c(F)cccc2F)CC1` (racemic) [Example 38, a mixture of rac-N-{(4R)-1-[(1R,2R)-2-(2′,6′-difluoro[1,1′-biphenyl]-2-yl)cyclopropane-1-carbonyl]azepan-4-yl}methanesulfonamide and rac-N-{(4S)-1-[(1R,2R)-2-(2′,6′-difluoro[1,1′-biphenyl]-2-yl)cyclopropane-1-carbonyl]azepan-4-yl}methanesulfonamide] as the compound, how does the “OX2R agonist activity (3 μM, %)” value read?
Its value is 106%.

For `O=C(C1CC1c1ccccc1-c1c(F)cccc1F)N1CCC(NS(=O)(=O)C2CC2)C1` (racemic) [Example 37, a mixture of rac-N-{(3R)-1-[(1R,2R)-2-(2′,6′-difluoro[1,1′-biphenyl]-2-yl)cyclopropane-1-carbonyl]pyrrolidin-3-yl}cyclopropanesulfonamide and rac-N-{(3S)-1-[(1R,2R)-2-(2′,6′-difluoro[1,1′-biphenyl]-2-yl)cyclopropane-1-carbonyl]pyrrolidin-3-yl}cyclopropanesulfonamide], which “OX2R agonist activity (3 μM, %)” value is on record?
Its value is 101%.

With `CS(=O)(=O)NC1CCCN(C(=O)C2CC2c2ccccc2-c2ccccc2Cl)C1` (racemic) [Example 74, a mixture of rac-N-{(3R)-1-[(1R,2R)-2-(2′-chloro[1,1′-biphenyl]-2-yl)cyclopropane-1-carbonyl]piperidin-3-yl}methanesulfonamide and rac-N-{(3S)-1-[(1R,2R)-2-(2′-chloro[1,1′-biphenyl]-2-yl)cyclopropane-1-carbonyl]piperidin-3-yl}methanesulfonamide] as the compound, how does the “OX2R agonist activity (3 μM, %)” value read?
The value was 84%.

Which “OX2R agonist activity (3 μM, %)” value does the source give for `CC(NS(C)(=O)=O)C12CC(C1)N(C(=O)[C@@H]1C[C@@]1(F)c1ccccc1-c1c(F)cccc1F)C2` (stereo partly drawn) [Example 392, N-[(1R)-1-{2-[(1S,2S)-2-(2′,6′-difluoro[1,1′-biphenyl]-2-yl)-2-fluorocyclopropane-1-carbonyl]-2-azabicyclo[2.1.1]hexan-4-yl}ethyl]methanesulfonamide, or N-[(1S)-1-{2-[(1S,2S)-2-(2′,6′-difluoro[1,1′-biphenyl]-2-yl)-2-fluorocyclopropane-1-carbonyl]-2-azabicyclo[2.1.1]hexan-4-yl}ethyl]methanesulfonamide] here?
The value was 68%.

How did the “OX2R agonist activity (3 μM, %)” value turn out when `CS(=O)(=O)NC1CCCN(C(=O)C2CC2c2c(F)cccc2-c2c(F)cccc2F)C1` (racemic) [Example 31, a mixture of rac-N-{(3R)-1-[(1R,2R)-2-(2′,3,6′-trifluoro[1,1′-biphenyl]-2-yl)cyclopropane-1-carbonyl]piperidin-3-yl}methanesulfonamide and rac-N-{(3S)-1-[(1R,2R)-2-(2′,3,6′-trifluoro[1,1′-biphenyl]-2-yl)cyclopropane-1-carbonyl]piperidin-3-yl}methanesulfonamide] was run?
Its value is 101%.
